# Where “and” joins values, the source holds several entries; their conditions need not be identical. Equal entries are not always repeated.
# Tests used:
# estrone sulfatase [1] = target: T1, estrone sulfatase (Homo sapiens, UniProt P08842); assay: Estrone sulfatase whole-cell assay on JEG-3 cells; type: cell-based; set-up: The JEG-3 cell line, derived from a human placental choriocarcinoma, is spontaneously very rich in human estrone sulfatase; endogenous in cells; host or cells: JEG-3 (human placental choriocarcinoma), intact cells; settings: 4 h treatment, 3H-E1S, read-out: IC50 (nM) ± S.E.M., inhibition of estrone sulfatase
# T1 sequence (P08842 22-583): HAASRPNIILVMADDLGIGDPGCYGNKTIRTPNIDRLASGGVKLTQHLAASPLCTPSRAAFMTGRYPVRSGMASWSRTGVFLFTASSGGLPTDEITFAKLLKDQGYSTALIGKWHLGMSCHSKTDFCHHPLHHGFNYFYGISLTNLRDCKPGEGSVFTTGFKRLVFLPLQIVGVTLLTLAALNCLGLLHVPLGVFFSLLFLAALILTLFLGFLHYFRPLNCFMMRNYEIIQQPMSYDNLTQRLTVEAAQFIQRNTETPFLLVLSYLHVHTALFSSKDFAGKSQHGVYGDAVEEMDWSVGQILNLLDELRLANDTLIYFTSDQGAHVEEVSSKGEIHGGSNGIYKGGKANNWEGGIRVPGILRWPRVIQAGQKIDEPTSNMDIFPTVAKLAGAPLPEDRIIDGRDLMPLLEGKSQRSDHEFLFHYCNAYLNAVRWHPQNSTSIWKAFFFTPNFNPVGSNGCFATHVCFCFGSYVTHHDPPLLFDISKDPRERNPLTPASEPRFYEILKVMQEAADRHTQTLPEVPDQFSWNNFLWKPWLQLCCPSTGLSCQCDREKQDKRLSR
# Procedure: (§1) Two in vitro models on whole cells were used. […] Moreover, these cells were used in the in vivo model of hormono-dependent induced xenografts.
# (§2) Estrone Sulfatase Assay on Cells
# (§3) Whole-cell assays were performed as originally described by Duncan et al. (Cancer Res., 1993, 53: 298-303) on intact MCF-7 cell monolayers. Assays were carried out with cells in logarithmic growth phase, on 96-well (JEG-3) or 24-well (MCF-7) microplates. Twenty-four hours (JEG-3) or 72 h (MCF-7) before studies, cells were seeded in decomplemented fetal calf serum (dFCS) supplemented medium. Then, the seeding medium was removed and the cells were rinsed with PBS to eliminate any trace of dFCS. Then, ^3H-E1S was added, followed by test compounds ranging from 10^−12 M to 10^−5 M. After 4 h (JEG-3) or 20 h (MCF-7) of treatment, the medium was transferred into either 96-deep-well microplates (JEG-3) or plastic tubes (MCF-7) and centrifuged at 200×g for 10 min to pellet cells before toluene extraction. A fraction of medium was used for toluene extraction in order to separate conjugated substrate and non-conjugated products. The radioactivity in the toluene phase was measured by liquid scintillation counting (LSC). Finally, estrone sulfatase activity was expressed in pmoles of ^3H-E1+^3H-E2 formed per 4 or 20 hours and per μg DNA and estrone sulfatase inhibition in percentage of control activity without inhibitor.
# estrone sulfatase [2] = target: T1, estrone sulfatase; assay: Estrone sulfatase whole-cell assay on MCF-7 cells; type: cell-based; set-up: Whole-cell assays were performed as originally described by Duncan et al. (Cancer Res., 1993, 53: 298-303) on intact MCF-7 cell monolayers; endogenous in cells; host or cells: MCF-7 (human breast adenocarcinoma), intact monolayers; settings: 20 h treatment, 3H-E1S, read-out: IC50 (nM) ± S.E.M., inhibition of estrone sulfatase
# Procedure: as §1, §2, §3
# prepubescent female rats = assay: Residual estrogenic activity in vivo (uterotrophic assay); settings: prepubescent female rats, oral, 1 mg/rat/day for 3 days
# Procedure: These compounds were checked for residual estrogenic activity in vivo in the classical uterotrophic assay after 3-day administration by oral route in prepubescent female rats.
# Prepubescent female rats were orally treated at 1 mg/rat/day for 3 days. On the day following the last treatment, uteri were removed and wet weight were recorded.
# The results are expressed as % of stimulation of uterus weight in comparison with controls.
# [3] = system: ovariectomized Wistar female rats; assay: Antiuterotrophic/antisulfatase activity: inhibition of E1S stimulated uterus weight; type: in vivo, rat; settings: ovariectomized rats, E1S 50 μg/kg/day s.c., compound oral 1 mg/kg/day for 4 days
# Procedure: A short model, derived from Purohit's method, was developed for the evaluation in vivo of nonestrogenic steroid sulfatase inhibitors.
# Wistar female rats were ovariectomized and left to rest for 4 weeks. Prior to treatment, the absence of cyclicity was checked by vaginal smears.
# Animals were supplemented with estrone sulfate (E1S) at 50 μg/kg/day s.c., alone or combined with oral administration of potential sulfatase inhibitors, at 1 mg/kg/day for 4 days. The uteri were removed, freed of adjacent tissue and wet weighed.
# The results are expressed as % of inhibition of the E1S induced stimulation.
# The activity of Ex 55 on E1S stimulated uterus weight was evaluated in relation to the standard inhibitor 6,6,7 COUMATE from 0.03 mg/kg/day to 1 mg/kg/day p.o.
# In this study, a last administration was performed 24 hours before the necropsy for E1S and E2 serum levels assays. The uteri were removed, freed of adjacent tissue, wet weighed and immediately deep frozen until the determination of sulfatase activity.
smiles,measurement,setting,value
"C[C@]12CCC3c4ccc(OS(N)(=O)=O)cc4CCC3C1CCC2=O (some centres unmarked) [EMATE, estrone-3-sulfamate, reference compound]",IC50,estrone sulfatase [1],3.2 ± 0.2 nM
same,IC50,estrone sulfatase [2],0.06 ± 0.01 nM
"NS(=O)(=O)Oc1ccc2cc(C3CCCC3)sc2c1 [Ex 30, Sulfamic acid, 2-cyclopentyl-benzothiophene-6-yl ester]",melting point,,110 °C
same,IC50,estrone sulfatase [1],78.8 ± 39.8 nM
"NS(=O)(=O)Oc1ccc2cc(C3CCCCCC3)sc2c1 [Ex 31, Sulfamic acid, 2-cycloheptyl-benzothiophene-6-yl ester]",melting point,,132 °C
same,IC50,estrone sulfatase [1],102 ± 58 nM
"NS(=O)(=O)Oc1ccc2cc(C3CCCCCCC3)sc2c1 [Ex 32, Sulfamic acid, 2-cyclooctyl-benzothiophene-6-yl ester]",melting point,,126 °C
same,IC50,estrone sulfatase [1],434 ± 94.8 nM
"NS(=O)(=O)Oc1ccc2cc(C3CCCCCCCCC3)sc2c1 [Ex 33, Sulfamic acid, 2-cyclodecyl-benzothiophene-6-yl ester]",melting point,,98 °C
same,IC50,estrone sulfatase [1],744 ± 140 nM
"CC1CCC(c2cc3ccc(OS(N)(=O)=O)cc3s2)CC1 (centres unmarked) [Ex 34, Sulfamic acid, 2-(4-methylcyclohexyl)-benzothiophene-6-yl ester]",melting point,,132 °C
same,IC50,estrone sulfatase [1],318 ± 42.9 nM
"CC1CCCCC1c1cc2ccc(OS(N)(=O)=O)cc2s1 (centres unmarked) [Ex 35, Sulfamic acid, 2-(2-methylcyclohexyl)-benzothiophene-6-yl ester]",melting point,,110 °C
same,IC50,estrone sulfatase [1],147 ± 16.3 nM
"CC1(C)CCCC1c1cc2ccc(OS(N)(=O)=O)cc2s1 (centres unmarked) [Ex 36, Sulfamic acid, 2-(2,2-dimethylcyclopentyl)-benzothiophene-6-yl ester]",melting point,,72 °C
same,IC50,estrone sulfatase [1],128 ± 14.2 nM
"NS(=O)(=O)Oc1ccc2cc(C3C4CC5CC(C4)CC3C5)sc2c1 (centres unmarked) [Ex 37, Sulfamic acid, 2-(2-adamantyl)-benzothiophene-6-yl ester]",melting point,,185 °C
same,IC50,estrone sulfatase [1],92.4 ± 15.6 nM
"CCCc1cc2ccc(OS(N)(=O)=O)cc2s1 [Ex 38, Sulfamic acid, 2-propyl-benzothiophene-6-yl ester]",melting point,,112 °C
"CCCCCCc1cc2ccc(OS(N)(=O)=O)cc2s1 [Ex 39, Sulfamic acid, 2-hexyl-benzothiophene-6-yl ester]",melting point,,125 °C
"NS(=O)(=O)Oc1ccc2cc(CC3CCCCC3)sc2c1 [Ex 40, Sulfamic acid, 2-cyclohexylmethyl-benzothiophene-6-yl ester]",melting point,,115 °C
"NS(=O)(=O)Oc1ccc2cc(CC3CCCCCC3)sc2c1 [Ex 41, Sulfamic acid, 2-cycloheptylmethyl-benzothiophene-6-yl ester]",melting point,,90 °C
"NS(=O)(=O)Oc1ccc2cc(C3CCCCC3)[s+]([O-])c2c1 (centres unmarked) [Ex 42, Sulfamic acid, 2-cyclohexyl-benzothiophene-6-yl-1-oxide ester]",% stimulation of uterus weight in comparison with controls,prepubescent female rats,0%
same,% inhibition of the E1S induced stimulation (uterus weight),[3],38%
same,IC50,estrone sulfatase [1],7 ± 1.2 nM
same,IC50,estrone sulfatase [2],0.16 ± 0.03 nM
"NS(=O)(=O)Oc1ccc2c(c1)S(=O)(=O)C(C1CCCCC1)=C2 [Ex 44, Sulfamic acid, 2-cyclohexyl-benzothiophene-6-yl-1,1-dioxide ester]",% stimulation of uterus weight in comparison with controls,prepubescent female rats,0%
same,% inhibition of the E1S induced stimulation (uterus weight),[3],70%
same,melting point,,180 °C
same,IC50,estrone sulfatase [1],10.9 ± 2.6 nM
same,IC50,estrone sulfatase [2],0.24 ± 0.05 nM
"NS(=O)(=O)Oc1ccc2c(c1)S(=O)(=O)C(C1CCCCCCCCC1)=C2 [Ex 47, Sulfamic acid, 2-cyclodecyl-benzothiophene-6-yl-1,1-dioxide ester]",% stimulation of uterus weight in comparison with controls,prepubescent female rats,4%
same,% inhibition of the E1S induced stimulation (uterus weight),[3],62%
same,melting point,,102 °C
same,IC50,estrone sulfatase [1],52.1 ± 4.4 nM
same,IC50,estrone sulfatase [2],0.08 ± 0.01 nM
"CC1CCC(C2=Cc3ccc(OS(N)(=O)=O)cc3S2(=O)=O)CC1 (centres unmarked) [Ex 48, Sulfamic acid, 2-(4-methylcyclohexyl)-benzothiophene-6-yl-1,1-dioxide ester]",% stimulation of uterus weight in comparison with controls,prepubescent female rats,3%
same,% inhibition of the E1S induced stimulation (uterus weight),[3],60%
same,melting point,,170 °C
same,IC50,estrone sulfatase [1],7.6 ± 1.3 nM
same,IC50,estrone sulfatase [2],0.09 ± 0.02 nM
"CC1CCCCC1C1=Cc2ccc(OS(N)(=O)=O)cc2S1(=O)=O (centres unmarked) [Ex 49, Sulfamic acid, 2-(2-methylcyclohexyl)-benzothiophene-6-yl-1,1-dioxide ester]",% stimulation of uterus weight in comparison with controls,prepubescent female rats,8%
same,melting point,,92 °C
"CC1(C)CCCC1C1=Cc2ccc(OS(N)(=O)=O)cc2S1(=O)=O (centres unmarked) [Ex 50, Sulfamic acid, 2-(2,2-dimethylcyclopentyl)-benzothiophene-6-yl-1,1-dioxide ester]",% stimulation of uterus weight in comparison with controls,prepubescent female rats,24%
same,melting point,,172 °C
"CCCC1=Cc2ccc(OS(N)(=O)=O)cc2S1(=O)=O [Ex 52, Sulfamic acid, 2-propyl-benzothiophene-6-yl-1,1-dioxide ester]",melting point,,159 °C
same,IC50,estrone sulfatase [1],24.7 ± 5 nM
"CCCCCCC1=Cc2ccc(OS(N)(=O)=O)cc2S1(=O)=O [Ex 53, Sulfamic acid, 2-hexyl-benzothiophene-6-yl-1,1-dioxide ester]",melting point,,98 °C
same,IC50,estrone sulfatase [1],12.5 ± 3.3 nM
"NS(=O)(=O)Oc1ccc2c(c1)S(=O)(=O)C(CC1CCCCC1)=C2 [Ex 54, Sulfamic acid, 2-cyclohexylmethyl-benzothiophene-6-yl-1,1-dioxide ester]",% stimulation of uterus weight in comparison with controls,prepubescent female rats,6%
same,% inhibition of the E1S induced stimulation (uterus weight),[3],49%
same,melting point,,132 °C
same,IC50,estrone sulfatase [1],~10 nM and 10 nM
same,IC50,estrone sulfatase [2],0.1 ± 0.03 nM
"Cc1c(OS(N)(=O)=O)ccc2cc(C3CCCCCC3)sc12 [Ex 62, Sulfamic acid, 2-cycloheptyl-7-methyl-benzothiophene-6-yl ester]",melting point,,107 °C
"NS(=O)(=O)Oc1ccc2c3c(sc2c1)CCCC3 [Ex 64, Sulfamic acid, 1,2,3,4-tetrahydro-dibenzothiophene-7-yl ester]",melting point,,165 °C
same,IC50,estrone sulfatase [1],566 ± 130 nM
"Cc1c(OS(N)(=O)=O)ccc2c1S(=O)(=O)C(C1CCCCCC1)=C2 [Ex 65, Sulfamic acid, 2-cycloheptyl-7-methyl-benzothiophene-6-yl-1,1-dioxide ester]",melting point,,90 °C
same,IC50,estrone sulfatase [1],31.7 ± 9.9 nM
